Values of other authors as cited in patent publication US20160030582A1 (MAYNE PHARMA INTERNATIONAL PTY. LTD., priority 2012, published 2016).
Like-named read-outs stand apart in the source and are kept apart here.

What was measured:
[1] = system: typical infecting organisms for specific superficial and systemic mycoses; design: MIC90: unit not given here; settings: for MIC RANGE: in µg/mL
[2] = Aspergillosis, A. flavus complex
[3] = Aspergillosis, A. fumigatus complex
[4] = Aspergillosis, A. nidulans complex
[5] = Aspergillosis, A. niger complex
[6] = Aspergillosis, A. terreus complex
[7] = tinea capitis, Microsporum sp. (audounti, canis, gypseum, ferrugineum et al.)
[8] = tinea capitis, Trichophyton sp. (tonsurans violaceum, soudanese, schoenleinii, mentagrophytes, verrucossum, et al.)
[9] = tinea corporis, Epidermophyton floccosum
[10] = tinea corporis, Microsporum sp. (canis, gypseum, et al.)
[11] = tinea corporis, Trichophyton sp. (rubrum, tonsurans interdigitale, mentagrophytes, concentricim, violaceum et al.)
[12] = tinea cruris, Epidermophyton floccosum
[13] = tinea cruris, Microsporum sp. (canis, et al.)
[14] = tinea cruris, Trichophyton sp. (rubrum, tonsurans interdigitale, mentagrophytes, et al.)
[15] = tinea manuum, Epidermophyton floccosum
[16] = tinea manuum, Trichophyton sp. (rubrum, interdigitale, mentagrophytes.)
[17] = tinea pedis, Epidermophyton floccosum
[18] = tinea pedis, Microsporum sp. (canis, gypseum, et al.)
[19] = tinea pedis, Trichophyton sp. (rubrum, tonsurans interdigitale, mentagrophytes, et al.)
[20] = tinea unguium, Epidermophyton floccosum
[21] = tinea unguium, Microsporum sp. (canis, et al.)
[22] = tinea unguium, Trichophyton sp. (rubrum, tonsurans interdigitale, mentagrophytes, et al.)

CCC(C)n1ncn(-c2ccc(N3CCN(c4ccc(OCC5COC(Cn6cncn6)(c6ccc(Cl)cc6Cl)O5)cc4)CC3)cc2)c1=O (centres unmarked) [itraconazole]
expected apparent plasma terminal elimination half-life (t½) (basis for sampling schedule of Example 12): 22 h | reduction of Cmax and AUC in the fasting state (compared to administration after a light meal): 50-70% | excreted unchanged in the feces (oral dose): 3-18% | MIC90 [1]: MIC90 = 0.06 | MIC90 [1, 2]: MIC90 = 0.5 | MIC RANGE [1, 2]: 0.03-8 | MIC90 [1, 3]: MIC90 = 0.5 | MIC RANGE [1, 3]: 0.03-16 | MIC90 [1, 4]: MIC90 = 0.25 | MIC RANGE [1, 4]: 0.03-8 | MIC90 [1, 5]: MIC90 = 0.5 | MIC RANGE [1, 5]: 0.03-8 | MIC90 [1, 6]: MIC90 = 0.25 | MIC RANGE [1, 6]: 0.03-1 | MIC90 ([1]; Candidiasis, C. albicans): MIC90 = 0.125 | MIC RANGE ([1]; Candidiasis, C. albicans): 0.008-8 | MIC RANGE ([1]; Candidiasis, C. glabrata): 0.008-16 | MIC RANGE ([1]; Candidiasis, C. kruset): 0.008-8 | MIC RANGE ([1]; Candidiasis, C. tropicalis): 0.03-8 | MIC RANGE ([1]; Pityriasis versicolor, Malassezia sp. (florfur, globosa, obtuse, sympodialis etc).): 0.3-16 | MIC RANGE [1]: 0.03-8 | MIC90 [1, 7]: MIC90 = 0.25-0.5 | MIC RANGE [1, 7]: 0.01-4 | MIC90 [1, 8]: MIC90 = 0.25-0.5 | MIC RANGE [1, 8]: 0.01-8 | MIC90 [1, 9]: MIC90 = 0.125 | MIC RANGE [1, 9]: 0.01-8 | MIC90 [1, 10]: MIC90 = 0.25-0.5 | MIC RANGE [1, 10]: 0.01-4 | MIC90 [1, 11]: MIC90 = 0.25-0.5 | MIC RANGE [1, 11]: 0.01-8 | MIC90 [1, 12]: MIC90 = 0.125 | MIC RANGE [1, 12]: 0.01-8 | MIC90 [1, 13]: MIC90 = 0.25-0.5 | MIC RANGE [1, 13]: 0.01-4 | MIC90 [1, 14]: MIC90 = 0.25-0.5 | MIC RANGE [1, 14]: 0.01-8 | MIC90 [1, 15]: MIC90 = 0.125 | MIC RANGE [1, 15]: 0.01-8 | MIC90 [1, 16]: MIC90 = 0.25-0.5 | MIC RANGE [1, 16]: 0.01-8 | MIC90 [1, 17]: MIC90 = 0.125 | MIC RANGE [1, 17]: 0.01-8 | MIC90 [1, 18]: MIC90 = 0.25-0.5 | MIC RANGE [1, 18]: 0.01-4 | MIC90 [1, 19]: MIC90 = 0.25-0.5 | MIC RANGE [1, 19]: 0.01-8 | MIC90 [1, 20]: MIC90 = 0.125 | MIC RANGE [1, 20]: 0.01-8 | MIC90 [1, 21]: MIC90 = 0.25-0.5 | MIC RANGE [1, 21]: 0.01-4 | MIC90 [1, 22]: MIC90 = 0.25-0.5 | MIC RANGE [1, 22]: 0.01-8
